Consider 13 compounds from PubChem BioAssay (NCI).

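96-well plates; 48 h exposure; 5 concentrations. Endpoints by linear interpolation between flanking doses. Not reached: highest tested concentration assigned. Abbreviation: GI50, concentration required for 50% inhibition of growth. The concentration for full growth arrest is given as TGI.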 Some results are limits rather than exact numbers.

Test systems include HCT-116 colon; K-562 leukemia; OVCAR-5 ovarian; NCI-H522 lung; EKVX NSCLC; SF-268 CNS; HCT-15 colon; HL-60(TB) leukemia; SF-539 CNS; OVCAR-4 ovarian.
What all share (test): growth of human tumour cells (NCI), 48 h

`C=CC(=O)N1CCCC(n2nc(-c3ccc(Oc4ccccc4)cc3)c3c(N)ncnc32)C1` (stereo not given): the GI50 in the test on HCT-116 colon is 11.9 µM; with K-562 leukemia, 4.13 µM; in the test with OVCAR-5 ovarian it was 13.1 µM; in the test on NCI-H522 lung, 0.0578 µM; with EKVX NSCLC, 0.164 µM; in the test on SF-268 CNS, 3.12 µM. Also, the GI50 is 12.6 µM in the test on HCT-15 colon, 21.9 µM in the test with HL-60(TB) leukemia, 6.73 µM in the test with SF-539 CNS and 7.12 µM in the test with OVCAR-4 ovarian. Further, the TGI in the test with HCT-116 colon worked out at 26.2 µM; with K-562 leukemia it was 24.4 µM; in the test with OVCAR-5 ovarian, 27.6 µM; in the test with NCI-H522 lung, 9.31 µM; in the test on EKVX NSCLC, 6.65 µM; with SF-268 CNS it was 17.2 µM. Moreover, the TGI with HCT-15 colon is 28.9 µM; in the test on HL-60(TB) leukemia, 44.5 µM; in the test on SF-539 CNS it was 21 µM; with OVCAR-4 ovarian, 21.2 µM.

Turning to `c1ccc2c(c1)[I+]c1ccccc1-2`, the GI50 is 38.4 µM in the test with HCT-116 colon; 28.2 µM in the test with K-562 leukemia; over 50 µM with OVCAR-5 ovarian; over 50 µM with NCI-H522 lung; 19.4 µM with EKVX NSCLC; over 50 µM in the test with SF-268 CNS. The GI50 was over 50 µM in the test on HCT-15 colon, over 50 µM in the test with HL-60(TB) leukemia, 40.6 µM with SF-539 CNS and 21.6 µM in the test on OVCAR-4 ovarian. Also, the TGI in the test on HCT-116 colon, in the test on K-562 leukemia, in the test with OVCAR-5 ovarian, with NCI-H522 lung, in the test with EKVX NSCLC and with SF-268 CNS was over 50 µM throughout. Moreover, the TGI in the test with HCT-15 colon, in the test on HL-60(TB) leukemia, with SF-539 CNS and in the test with OVCAR-4 ovarian was over 50 µM each time.

Consider `NC(N)=N/N=C(/c1nc2ccc([N+](=O)[O-])cc2[nH]c1=O)C(O)c1ccco1` (stereo not given), for which the TGI with HCT-116 colon, in the test on K-562 leukemia, in the test with OVCAR-5 ovarian, in the test with NCI-H522 lung, in the test on EKVX NSCLC and with SF-268 CNS was over 100 µM throughout. For the same compound, the TGI with HCT-15 colon, in the test with HL-60(TB) leukemia, in the test on SF-539 CNS and with OVCAR-4 ovarian was over 100 µM each time.

On to `O=C(Nc1ccc(Cl)cc1)Nc1ccc(Cl)c(Cl)c1`, for which the GI50 with HCT-116 colon was 3.5 µM; with K-562 leukemia, 2.63 µM; with OVCAR-5 ovarian, 4.29 µM; in the test with NCI-H522 lung it was 4.15 µM; with EKVX NSCLC it was 3.41 µM; with SF-268 CNS, 4.36 µM. In addition, the GI50 with HCT-15 colon is 2.92 µM; in the test with HL-60(TB) leukemia, 2.84 µM; in the test with SF-539 CNS it was 2.96 µM; with OVCAR-4 ovarian, 3.88 µM. The TGI in the test with HCT-116 colon, in the test with K-562 leukemia, in the test with OVCAR-5 ovarian, in the test with NCI-H522 lung, with EKVX NSCLC and in the test on SF-268 CNS was over 100 µM throughout. Besides, the TGI was 62.5 µM in the test with HCT-15 colon, 7.69 µM in the test on HL-60(TB) leukemia, 60.4 µM in the test with SF-539 CNS and over 100 µM with OVCAR-4 ovarian.

On to `c1cnc2c(c1)-n1cccc1C1(CCSCC1)NN2`, for which the TGI in the test on HCT-116 colon, in the test with K-562 leukemia, in the test with OVCAR-5 ovarian, in the test on NCI-H522 lung, in the test with EKVX NSCLC and in the test with SF-268 CNS was over 100 µM throughout. Also, the TGI in the test with HCT-15 colon, in the test with HL-60(TB) leukemia, in the test with SF-539 CNS and in the test on OVCAR-4 ovarian was over 100 µM in each case.

For the compound `CCN(CC)CCn1c2c3ccccc3ccc2c2oc(=O)c3ccccc3c21`, the TGI in the test on HCT-116 colon, in the test on K-562 leukemia, in the test on OVCAR-5 ovarian, with NCI-H522 lung, in the test with EKVX NSCLC and with SF-268 CNS was over 100 µM in each case. Further, the TGI in the test with HCT-15 colon was over 100 µM; with HL-60(TB) leukemia it was over 100 µM; in the test on SF-539 CNS it was 66.1 µM; with OVCAR-4 ovarian it was 96.5 µM.

`Oc1ccc(N=Nc2ccc(Cl)cc2)cc1`: the TGI came to 29.4 µM in the test with HCT-116 colon; 55.7 µM in the test on K-562 leukemia; 32.2 µM in the test on OVCAR-5 ovarian; 25 µM in the test on NCI-H522 lung; 31.8 µM in the test with EKVX NSCLC; 34.5 µM in the test on SF-268 CNS. For the same compound, the TGI with HCT-15 colon came out at 32.8 µM; with HL-60(TB) leukemia, 52.3 µM; in the test on SF-539 CNS, 36.7 µM; in the test on OVCAR-4 ovarian, 61 µM.

In the case of `CCCCCCNC(=O)C1=C(C)NC(C)=C(C(=O)NCCCCCC)C1`, the TGI in the test with HCT-116 colon, with K-562 leukemia, in the test with OVCAR-5 ovarian, in the test with NCI-H522 lung, with EKVX NSCLC and in the test on SF-268 CNS was over 100 µM each time. In addition, the TGI in the test on HCT-15 colon, with HL-60(TB) leukemia, in the test on SF-539 CNS and in the test with OVCAR-4 ovarian was over 100 µM throughout.

Turning to `CCCCCCC/C=C/[C@H]1O[C@]23C(=O)C[C@@]4(C[C@@H](OC5OC(CO)C(O)C(O)C5O)C[C@@H]4[C@H]2C=C1C)OC3=O` (stereo not given in full), the GI50 was 1.68 µM in the test with HCT-116 colon; 2.2 µM in the test with K-562 leukemia; 6.06 µM in the test on OVCAR-5 ovarian; 1.7 µM in the test with NCI-H522 lung; 6.72 µM in the test on EKVX NSCLC; 5.12 µM in the test on SF-268 CNS. Besides, the GI50 in the test with HCT-15 colon is 2.53 µM; with HL-60(TB) leukemia, 1.2 µM; in the test on SF-539 CNS, 5.1 µM; with OVCAR-4 ovarian, 3.37 µM. For the same compound, the TGI was 6.03 µM in the test with HCT-116 colon; 18.5 µM with K-562 leukemia; 14.7 µM in the test on OVCAR-5 ovarian; 8.64 µM in the test with NCI-H522 lung; 17.8 µM in the test on EKVX NSCLC; 11.1 µM with SF-268 CNS. For the same compound, the TGI in the test with HCT-15 colon turned out to be 9.43 µM; in the test with HL-60(TB) leukemia, 7.53 µM; in the test on SF-539 CNS, 9.99 µM; in the test with OVCAR-4 ovarian, 8.07 µM.

In the case of `CN(C)CCNc1nc2ccccc2c2c1c1c(n2Cc2ccccc2)-c2ccccc2C1=O`, the GI50 in the test with HCT-116 colon is 4.67 µM; in the test with K-562 leukemia, 3.89 µM; in the test with OVCAR-5 ovarian, 12.3 µM; with NCI-H522 lung, 11 µM; in the test with EKVX NSCLC, 16.3 µM; in the test with SF-268 CNS, 12.2 µM. In addition, the GI50 in the test with HCT-15 colon was 10.7 µM; with HL-60(TB) leukemia, 15.2 µM; in the test with SF-539 CNS it was 14 µM; in the test with OVCAR-4 ovarian, 12.6 µM. Also, the TGI in the test with HCT-116 colon worked out at 25.2 µM; with K-562 leukemia, 21.2 µM; in the test on OVCAR-5 ovarian it was 27.8 µM; with NCI-H522 lung it was 35.3 µM; in the test on EKVX NSCLC, 32.3 µM; with SF-268 CNS it was 28.6 µM. The TGI was 26.1 µM in the test with HCT-15 colon, 34.1 µM in the test with HL-60(TB) leukemia, 29.4 µM in the test on SF-539 CNS and 27 µM with OVCAR-4 ovarian.

As for `CCCCNc1nc(NC(C)(C)C)nc(NC(C)(C)C)n1`, the GI50 is 2.44 µM in the test with HCT-116 colon; 6.46 µM in the test on K-562 leukemia; 15.2 µM in the test with OVCAR-5 ovarian; 6.32 µM in the test on NCI-H522 lung; 3.12 µM in the test on EKVX NSCLC; 48.4 µM in the test with SF-268 CNS. For the same compound, the GI50 is 2.97 µM with HCT-15 colon, 15.7 µM with HL-60(TB) leukemia, 16.9 µM in the test with SF-539 CNS and 3.03 µM with OVCAR-4 ovarian. Moreover, the TGI was 29.6 µM with HCT-116 colon; over 100 µM in the test with K-562 leukemia; over 100 µM in the test with OVCAR-5 ovarian; over 100 µM with NCI-H522 lung; over 100 µM in the test on EKVX NSCLC; over 100 µM in the test on SF-268 CNS. Further, the TGI with HCT-15 colon, in the test with HL-60(TB) leukemia, in the test with SF-539 CNS and with OVCAR-4 ovarian was over 100 µM each time.

On to `O=C(O)C1CCc2ccc3ccccc3c2C1c1cccc2ccccc12` (stereo not given), for which the TGI in the test with HCT-116 colon is 28.9 µM; in the test on K-562 leukemia it was over 100 µM; in the test with OVCAR-5 ovarian, 37.9 µM; in the test on NCI-H522 lung, 60 µM; in the test on EKVX NSCLC, 85.8 µM; in the test on SF-268 CNS, 91.7 µM. For the same compound, the TGI worked out at 45.9 µM in the test with HCT-15 colon, 62 µM in the test on HL-60(TB) leukemia, 49.8 µM in the test on SF-539 CNS and 90.9 µM with OVCAR-4 ovarian.

Regarding `COc1ccc(NC(=O)C2C(=O)N(c3ccc(OC)cc3)C(=O)/C2=N/O)cc1` (stereo not given), the TGI is 38.3 µM in the test with HCT-116 colon; over 100 µM in the test on K-562 leukemia; over 100 µM in the test on OVCAR-5 ovarian; 53.4 µM with NCI-H522 lung; 97.2 µM in the test on EKVX NSCLC; 52.7 µM with SF-268 CNS. Also, the TGI in the test with HCT-15 colon is over 100 µM; with HL-60(TB) leukemia, over 100 µM; in the test on SF-539 CNS it was 36.7 µM; in the test with OVCAR-4 ovarian it was 31.6 µM.
